Reference: patent US20180155757A1, “IDENTIFICATION OF BACTERIA THAT ARE RESISTANT TO CARBAPENEMS BY MEMBRANE IMPERVIOUSNESS” (BIOMÉRIEUX, priority 2015, published 2018)
Where two headings read alike, the source gives them in different places.

Tests used:
Test in all cases: Etest MIC of indicator carbapenems on MH II agar without/with PMBN
Type in all cases: cell-based
[1] = system: E. cloacae 1109137 (OXA-48 producer)
Experimental: (§1) The determinations of antibiotic MIC were carried out on solid culture media with the Etest® method. To do this, Etest® strips (bioMérieux, France) were used: • Etest® Imipenem IM 32, and • Etest® Ertapenem ETP 32, and also solid culture media, differing from one another by virtue of their non-inhibitory concentrations of PMBN.
(§2) These solid culture media are prepared in Petri dishes (0=145 mm; V=50 ml) on a base of MH II Agar (Becton Dickinson®, United States), more or less supplemented with PMBN. The PMBN concentrations range from 0 up to concentrations equivalent to one fifth of the MIC of PMBN (⅕ MICPMBN).
(§3) Using a swab and the Retro C80™ rota-plater (bioMérieux, France), the culture media were inoculated with the bacteria, originating from an inoculum of 0.5 McFarland, prepared in 0.85% NaCl solution from colonies subcultured the day before on MH II agar.
(§4) The various Etest® strips are then deposited on the surface of the culture media. After 16 to 20 hours of incubation at 35° C., the MICS were read.
(§5) By way of indicator carbapenems according to the invention, in addition to imipenem (IM) and ertapenem (ETP), meropenem (MP) was also tested. Like the other two antibiotics, meropenem was used in the form of Etest® strips (Etest® Meropenem MP 32 from the company bioMérieux, France).
(§6) The methods used to prepare the new culture media and to carry out the antibiotic-sensitivity tests are identical to those described above.

[2] = system: E. cloacae 1204051 (membrane impermeability)
Experimental: as §1, §2, §3, §4, §5, §6

E. coli SAB 100 (porin−) = details: Escherichia coli
Experimental: as §1, §2, §3, §4, §5, §6

[3] = system: K. pneumoniae 1108003 (KPC-3 producer)
Experimental: as §1, §2, §3, §4, §5, §6

[4] = system: E. cloacae 1008080 (IMP producer); details: in µg/mL
Experimental: as §1, §2, §3, §4, §5, §6

[5] = system: K. pneumoniae 1204039 (membrane impermeability)
Experimental: as §1, §2, §3, §4, §5, §6

[6] = system: E. cloacae 1204056 (membrane impermeability)
Experimental: as §1, §2, §3, §4, §5, §6

[7] = system: E. cloacae 1204053 (membrane impermeability)
Experimental: as §1, §2, §3, §4, §5, §6

[8] = system: K. pneumoniae 1204035 (membrane impermeability); details: in µg/mL
Experimental: as §1, §2, §3, §4, §5, §6

[9] = system: E. cloacae 1008074 (VIM producer)
Experimental: as §1, §2, §3, §4, §5, §6

[10] = system: K. pneumoniae KP 63 (porin−); details: Klebsiella pneumoniae
Experimental: as §1, §2, §3, §4, §5, §6

E. coli SAB 108 (porin−) = details: Escherichia coli
Experimental: as §1, §2, §3, §4, §5, §6

[11] = system: K. pneumoniae 1204036 (membrane impermeability)
Experimental: as §1, §2, §3, §4, §5, §6

[12] = system: K. pneumoniae 1012142 (KPC-2 producer)
Experimental: as §1, §2, §3, §4, §5, §6

[13] = system: Enterobacter aerogenes EA 5 (porin−); details: Klebsiella aerogenes
Experimental: as §1, §2, §3, §4, §5, §6

[14] = system: E. cloacae 1204052 (membrane impermeability)
Experimental: as §1, §2, §3, §4, §5, §6

[15] = system: K. pneumoniae 1103183 (NDM producer)
Experimental: as §1, §2, §3, §4, §5, §6

[16] = system: Enterobacter aerogenes EA 27 (porin−); details: Klebsiella aerogenes
Experimental: as §1, §2, §3, §4, §5, §6

[17] = system: E. cloacae 1204058 (membrane impermeability); details: in µg/mL
Experimental: as §1, §2, §3, §4, §5, §6

Measured: MIC

C[C@@H](O)[C@H]1C(=O)N2C(C(=O)O)=C(S[C@@H]3CN[C@H](C(=O)Nc4cccc(C(=O)O)c4)C3)[C@H](C)[C@H]12 [ETP, ertapenem]
6: [8]; [PMBN] 300, Table 4a
12-24: [4]; [PMBN] 300, Table 4a
8 µg/mL: [3]; [PMBN] 0, Table 4a | [14]; [PMBN] 200, Table 4a
0.19 µg/mL: E. coli SAB 100 (porin−); [PMBN] 50 μg/ml | E. coli SAB 100 (porin−); [PMBN] 100 μg/ml | [10]; [PMBN] 150 μg/ml | E. coli SAB 108 (porin−); [PMBN] 100 μg/ml | E. coli SAB 108 (porin−); [PMBN] 150 μg/ml | E. coli SAB 108 (porin−); [PMBN] 200 μg/ml | [16]; E. aerogenes EA 27 (porin−), [PMBN] 200 μg/ml, read-out: MIC
1 µg/mL: [5]; [PMBN] 300, Table 4a | [6]; [PMBN] 300, Table 4a | [10]; [PMBN] 0 | [13]; E. aerogenes EA 5 (porin−), [PMBN] 200 μg/ml
0.38 µg/mL: [9]; [PMBN] 0, Table 4a | [10]; [PMBN] 100 μg/ml
0.25 µg/mL: E. coli SAB 108 (porin−); [PMBN] 50 μg/ml | [16]; EA 27 (porin−), [PMBN] MIC/8, read-out: MIC
4 µg/mL: [2]; [PMBN] 200, Table 4a | [7]; [PMBN] 300, Table 4a | E. coli SAB 108 (porin−); [PMBN] 0 | [13]; EA 5 (porin−), [PMBN] MIC/5 | [13]; EA 5 (porin−), [PMBN] MIC/8 | [13]; EA 5 (porin−), [PMBN] MIC/10 | [16]; E. aerogenes EA 27 (porin−), [PMBN] 50 μg/ml, read-out: MIC
2 µg/mL: [5]; [PMBN] 0, Table 4a | [13]; E. aerogenes EA 5 (porin−), [PMBN] 50 μg/ml | [13]; E. aerogenes EA 5 (porin−), [PMBN] 100 μg/ml
>32: [4]; [PMBN] 200, Table 4a | [8]; [PMBN] 0, Table 4a | [17]; [PMBN] 0, Table 4a
8: [8]; [PMBN] 100, Table 4a
6 µg/mL: [13]; E. aerogenes EA 5 (porin−), [PMBN] 0, Table 4
0.75: [17]; [PMBN] 300, Table 4a
3 µg/mL: [2]; [PMBN] 300, Table 4a | [6]; [PMBN] 200, Table 4a | [14]; [PMBN] 300, Table 4a
64 µg/mL: [16]; EA 27 (porin−), [PMBN] 0, Table 2, read-out: MIC
1.5 µg/mL: E. coli SAB 100 (porin−); [PMBN] 0 | [5]; [PMBN] 100, Table 4a | [5]; [PMBN] 200, Table 4a | [13]; E. aerogenes EA 5 (porin−), [PMBN] 150 μg/ml | [16]; E. aerogenes EA 27 (porin−), [PMBN] 100 μg/ml, read-out: MIC
24: [4]; [PMBN] 100, Table 4a
32 µg/mL: [12]; [PMBN] 0, Table 4a | [13]; EA 5 (porin−), [PMBN] 0, Table 2 | [15]; [PMBN] 200, Table 4a | [15]; [PMBN] 300, Table 4a
12 µg/mL: [1]; [PMBN] 200, Table 4a | [2]; [PMBN] 100, Table 4a | [6]; [PMBN] 100, Table 4a | [14]; [PMBN] 100, Table 4a
16: [4]; [PMBN] 0, Table 4a
> 32 µg/mL: [1]; [PMBN] 300, Table 4a | [2]; [PMBN] 0, Table 4a | [3]; [PMBN] 200, Table 4a | [3]; [PMBN] 300, Table 4a | [6]; [PMBN] 0, Table 4a | [7]; [PMBN] 0, Table 4a | [7]; [PMBN] 100, Table 4a | [7]; [PMBN] 200, Table 4a | [11]; [PMBN] 0, Table 4a | [11]; [PMBN] 100, Table 4a | [11]; [PMBN] 200, Table 4a | [11]; [PMBN] 300, Table 4a | [12]; [PMBN] 100, Table 4a | [12]; [PMBN] 200, Table 4a | [12]; [PMBN] 300, Table 4a | [14]; [PMBN] 0, Table 4a | [15]; [PMBN] 0, Table 4a | [15]; [PMBN] 100, Table 4a | [16]; E. aerogenes EA 27 (porin−), [PMBN] 0, Table 4, read-out: MIC
8-12: [8]; [PMBN] 200, Table 4a | [17]; [PMBN] 100, Table 4a
0.5 µg/mL: [9]; [PMBN] 100, Table 4a | [9]; [PMBN] 200, Table 4a | [9]; [PMBN] 300, Table 4a | [10]; [PMBN] 50 μg/ml
0.75 µg/mL: [16]; E. aerogenes EA 27 (porin−), [PMBN] 150 μg/ml, read-out: MIC
24 µg/mL: [1]; [PMBN] 0, Table 4a | [3]; [PMBN] 100, Table 4a
0.125 µg/mL: E. coli SAB 100 (porin−); [PMBN] 150 μg/ml | E. coli SAB 100 (porin−); [PMBN] 200 μg/ml | [10]; [PMBN] 200 μg/ml | [16]
16 µg/mL: [16]; EA 27 (porin−), [PMBN] MIC/10, read-out: MIC
